Columns and labels:
[1] = system: capillary circulation of the skin; assay: Laser Doppler circulation study in five human subjects (Example 7); assay type: in vivo; conditions: positive control formulation containing 0.1% methyl nicotinate
Source text: This example illustrates delivery of nitric oxide formulations to five human subjects, using procedures and formulations similar to those discussed in Example 5. Each person served as their own control for the testing. A Moor Instruments Laser Doppler was used to determine circulation. […] The formulations used produce positive, almost immediate results when applied to the skin which, in these studies, was manifested by vasodilatation of the cutaneous vascular system. For each subject, the following creams were applied: a negative control formulation (containing no NO), 0.010 gram of a 10,000 ppm NO formulation, 0.020 gram of a 10,000 ppm NO formulation, and a positive control formulation containing 0.1% methyl nicotinate. The formulations were prepared using procedures similar to those discussed in Example 1.

[2] = system: micro-capillary blood flow to skin; assay: Laser Doppler microcirculation study in three human female subjects, 10,000 ppm NO (Example 5); assay type: in vivo; conditions: applied to the skin at 1/10% in alcohol
Description: This example illustrates delivery of nitric oxide formulations similar to those discussed herein in humans. In these studies, laser Doppler studies were performed on three human female subjects. […] The formulations used produce positive, almost immediate results when applied to the skin which, in these studies, was manifested by vasodilatation of the cutaneous vascular system.
While nitric oxide has many physiological effects, the purpose of these studies was to measure physiological effects that would be relatively easy to determine, and which would be noninvasive. […] Nitric oxide is capable of […] the capillary bed, and thus, laser Doppler was selected.
The formulation used in these studies contained nitric oxide dispersed in a lipid matrix. […] This provided a stable measuring device as determined by multiple normal evaluations of the capillary blood flow without treatment of nitric oxide.
A known positive control, methyl nicotinate, was applied to the skin at a concentration of 1/10% in alcohol. […] The laser Doppler device accurately measured these parameters.
In these studies, the participants were healthy females aged 30 to 55 years. They were in good health as determined by the medical history and were not taking any prescription medications. All study participants read and signed the informed consent statement prior to any study procedures being performed. […]

COC(=O)c1cccnc1 [methyl nicotinate]
Vasodilatation (laser Doppler) [1]: vasodilatation was observed | Vasodilator response of positive control [2]: rapid response typical of the vasodilator
